Assay results reported in patent US11951155B2, “Pea-derived peptide with muscle-building effect and preparation method thereof, and drug and use” (Zhongshi Duqing(Shandong) Biotech Co., Ltd, priority 2022, dated 2024).
Values joined by “and” are separate entries in the source; they are usually repeats but may differ in a detail not shown here. Equal entries are not always repeated. Ends that are not written are not given here.

Columns and labels:
pepsin and trypsin = assay: In vitro digestion test with pepsin and trypsin; type: in vitro ADME; conditions: 500 mg/L; pepsin 20 mg/g pH 2.0 37° C. 90 min, then trypsin 40 mg/g pH 7.5 37° C. 150 min; HPLC or LC-MS
Description: A pea-derived peptide aqueous solution and a pea-derived peptide PP2 aqueous solution with a mass concentration of 500 mg/L were prepared separately, pepsin (20 mg/g) was added, a pH value was adjusted to 2.0, and the two aqueous solutions were treated in a water bath at a constant temperature of 37° C. for 90 min. Following the water bath, the pH value was adjusted to 7.5, trypsin (40 mg/g) was added, and the two aqueous solutions were treated in the water bath at a constant temperature of 37° C. for 150 min. Following the water bath, the two solutions were placed in a 95° C. water bath for 5 min to inactivate the enzyme. The samples were freeze-dried and analyzed by HPLC to compare changes in the liquid chromatograms before and after digestion. Also provided were undigested pea-derived peptide and pea-derived peptide digested only by pepsin but not by trypsin.
Pea-derived peptide PP2 was digested in vitro according to the method of Example 4.

[1] = test system: IGF-1R, cyclinD1, CDK6, p-AMPK in C2C12 cells; assay: Western blot of growth and proliferation-related proteins in C2C12 cells; type: cell-based; conditions: skeletal muscle cells treated with one peptide alone
Excerpt: The C2C12 cells in a logarithmic growth phase were inoculated into a 6-well plate at 1×10^6; the cells were divided into 6 groups, namely a blank control group (CN), and sample groups including a pea-derived peptide PP1 group (PP1), a pea-derived peptide PP2 group (PP2), a pea-derived peptide PP3 group (PP3), a pea-derived peptide PP4 group (PP4), and a pea-derived peptide PP5 group (PP5). Each treatment group was set to duplicate 3 wells, with approximately 1,000,000 cells per well; a sample having a concentration of 0.4 μg/ml was added to the cells of the sample groups, and each treatment group was set to 3 duplicate wells. After co-incubating for 24 h, the cells in different treatment groups were collected, fully lysed, and a total protein was extracted, and a protein concentration was determined using a nucleic acid protein analyzer. The protein sample was mixed with a loading buffer thoroughly, denatured at 100° C. for 10 min, and subjected to SDS-PAGE gel electrophoresis. The program included: 80 V for 30 min; 100 V for 80 min. Membrane transfer was conducted, where the membrane transfer procedure was conducted at 100 V for 90 min. After transferring, the sample was placed in a 5% skimmed milk powder, and sealed in a shaker at room temperature for 1 h. GAPDH antibody (1:2000) and PCNA antibody, AMPK antibody, p-AMPK antibody, IGF-1 antibody (1:1000) were added separately, and allowed to stand at 4° C. overnight. A secondary antibody (1:20000) was added, and incubated at room temperature for 1 h. The membrane was washed 3 times with TBST, and a Pierce-enhanced luminescent agent was added, and exposure was conducted by an automatic exposure machine.

C2C12 cells = assay: C2C12 cell proliferation assay (CCK-8, OD at 450 nm); type: cell-based; conditions: for cell concentration compared with CN group: co-incubated 48 h, 0.4 μg/ml; for OD value, Average value / OD value, Repeated three groups: sample 0.4 μg/ml, OD 450 nm; for OD value, Repeated three groups: single replicates
Description: The C2C12 cells in a logarithmic growth phase were inoculated into a 96-well plate; the cells were divided into 4 groups, namely a blank control group (CN, without any peptide fractions), a pea-derived peptide S1 group, a pea-derived peptide S2 group, and a pea-derived peptide S3 group; each treatment group was set to duplicate 3 wells, with approximately 1,000 cells per well. Except for the blank control group, 0.4 μg/ml pea-derived peptide was added to the cells, and 10 μL of a CCK-8 solution was added separately at 0 h, 12 h, 24 h, 36 h, and 48 h, and mixed well; the cells were incubated in a CO2 incubator at 37° C. for 2 h, an OD value was measured using a microplate reader at 450 nm, and a cell proliferation curve was drawn.
The C2C12 cells in a logarithmic growth phase were inoculated into a 96-well plate; the cells were divided into 6 groups, namely a blank control group (CN, without any peptide fractions), and sample groups including a pea-derived peptide PP1 group (PP1), a pea-derived peptide PP2 group (PP2), a pea-derived peptide PP3 group (PP3), a pea-derived peptide PP4 group (PP4), and a pea-derived peptide PP5 group (PP5). Each treatment group was set to 3 duplicate wells, with approximately 1,000 cells per well. A sample having a concentration of 0.4 μg/ml was added to the cells of the sample groups, and 10 μL of a CCK-8 solution was added separately at 0 h, 12 h, 24 h, 36 h, and 48 h, and mixed well; the cells were incubated in a CO2 incubator at 37° C. for 2 h, an OD value was measured using a microplate reader at 450 nm, and a cell proliferation curve was drawn.

Row | Substance | stability after digestion by pepsin and trypsin (pepsin and trypsin) | expression of IGF-1R, cyclinD1, CDK6 and p-AMPK [1] | cell concentration compared with CN group (C2C12 cells) | OD value, Average value (C2C12 cells; treatment time 0 h) | OD value, Repeated three groups (C2C12 cells; treatment time 0 h) | OD value, Average value (C2C12 cells; treatment time 12 h) | OD value, Repeated three groups (C2C12 cells; treatment time 12 h) | OD value, Average value (C2C12 cells; treatment time 24 h) | OD value, Repeated three groups (C2C12 cells; treatment time 24 h) | OD value, Average value (C2C12 cells; treatment time 36 h) | OD value, Repeated three groups (C2C12 cells; treatment time 36 h) | OD value, Average value (C2C12 cells; treatment time 48 h) | OD value, Repeated three groups (C2C12 cells; treatment time 48 h)
1 | LDLPVL [PP2, Leu-Asp-Leu-Pro-Val-Leu] | not digested and degraded by the pepsin and trypsin | – | – | – | – | – | – | – | – | – | – | – | –
2 | EGSLLLPH | – | significantly increase expression | increases significantly | 0.35 | 0.28 and 0.35 and 0.41 | 0.53 | 0.52 and 0.66 and 0.42 | 1.26 | 1.24 and 1.07 and 1.48 | 1.73 | 1.77 and 1.62 and 1.81 | 1.95 | 1.96 and 1.78 and 2.10
3 | LLYVIR | – | significantly increase expression | increases significantly | 0.38 | 0.36 and 0.52 and 0.27 | 0.50 | 0.42 and 0.51 and 0.56 | 1.34 | 1.08 and 1.62 and 1.32 | 1.84 | 1.95 and 1.83 and 1.74 | 2.11 | 2.07 and 2.32 and 1.95
4 | NTNYEEIEKVL | – | significantly increase expression | increases significantly | 0.36 | 0.44 and 0.27 and 0.36 | 0.557 | 0.43 and 0.53 and 0.71 | 1.42 | 1.41 and 1.66 and 1.19 | 1.88 | 1.72 and 2.06 and 1.86 | 2.12 | 1.98 and 2.32 and 2.05
5 | TNYEEIEKVLL | – | significantly increase expression | increases significantly | 0.33 | 0.41 and 0.37 and 0.22 | 0.56 | 0.54 and 0.45 and 0.68 | 1.33 | 1.31 and 1.06 and 1.62 | 1.86 | 2.03 and 1.67 and 1.89 | 2.09 | 1.87 and 2.11 and 2.28
